This is an account of results in patent publication US12473295B2, “Substituted straight chain spiro derivatives” (Janssen Pharmaceutica NV, priority 2019, dated 2025).

Each structure is given as a SMILES string. pIC50: −log10 of the molar value. Structures can show the parent of a compound that is named as a salt. Bounds are passed on as bounds.

The subject of data set [1] is iCell Cardiomyocytes2. Briefly: Ca2+-fluorescence assay in human pluripotent stem cell-derived cardiomyocytes (CTCM human), iCell Cardiomyocytes2. Type of data set: cell-based. On the set-up: key: Green: No concern; Yellow: Low concern; Red: High concern; Black: Very high concern due to arrhythmic events. To be noted: 30 min; for Color @ 0.1 μM (hazard score): iCell Cardiomyocytes2, 0.1 μM; for Color @ 1 μM (hazard score): iCell Cardiomyocytes2, 1 μM. The protocol: (§1) 7) Cardio-Electrophysiological Effects of the Testing Compounds in Synchronously Beating Human Pluripotent Stem Cell-Derived Cardiomyocytes (hSC-CMs) Using a Ca^2+-Fluorescence Assay (CTCM Human)
(§2) Compounds were tested in the 96-well plates
Compounds were tested at 0.1 μM, 0.2 μM, 0.5 μM, 1 μM, 2.5 μM and 5 μM (n=4 per dose) on Cor.4U 9-Cardiomyocytes or on iCell® Cardiomyocytes2
Alternatively, compounds were tested at 0.1 μM, 0.3 μM; 1 μM, 3 μM, 10 μM and 30 μM (n=4 per dose) mostly on iCell® Cardiomyocytes2
(§3) Dimethylsulfoxide (DMSO). The solutions of the compound in DMSO or its solvent (final concentration of 0.1% DMSO; n=8)
(§4) Preparation of Test Article and Controls
(§5) Tested compounds were dissolved in DMSO at 1000-fold the intended concentrations. A compound “mother-plate” was made, containing the test compounds and positive and negative controls at 1000-fold the final concentrations. At the experiment day, these stock solutions were diluted with Tyrode (Sigma), supplemented with 10 mM HEPES (Gibco), to 2-fold the intended concentration (in round bottom compound plates). Final DMSO concentration in test solutions and vehicle control was 0.1%.
Second line hSC derived cardiomyocyte called iCell®, Cardiomyocytes2 were purchased from FUJIFILM Cellular Dynamics (USA). The experiments with test drugs are carried out 5 to 7 days after plating the cells onto the plate to have a living, beating monolayer of hiPSC-derived cardiomyocytes. The beating monolayer in 96-well-plates are normally taken from 2 Vials of frozen iCell) Cardiomyocytes2 (≈5 million cells/vial), which will be plated onto […] 96-well plates (≈50K/well).
(§6) Before Start of Experiment
(§7) At least one hour before the start of the experiments the normal cell medium was replaced with Tyrode solution with Calcium dye (see below).
(§8) Cal 520 dye (AAT Bioquest) was dissolved in 11 ml of Tyrode supplemented with 10 mM HEPES and warmed up to 37° C. before adding to the cells.
(§9) 35 μl cell culture medium was removed from each well and replaced with 35 μl of pre-warmed Cal 520 dye solution and cell plate was incubated for 45 min at 37° C./5% CO2. Cells were incubated for 5 min at 37° C.
(§10) Spontaneous electrical activity is recorded, using Cal520™ (AAT Bioquest) calcium fluorescence-dye signaling. This dye integrates the total intracellular calcium activity over the whole well. A bottle of Cal520 dye (50 μg, MW: 1103/mol) is dissolved with 50 μl DMSO as a stock solution of 0.9 mM. 50 μL of the stock solution of the dye was added to 10 ml Tryodes solution to have dye concentration of 4.5 μM. Subsequently, 35 μl of this dye solution was added into each well, to have a final dye concentration of 1.58 μM. The current dye protocol on this CTCM human assay was established recently (Ivan Kopljar et al, Journal of Pharmacological and toxicological methods 2018. 91: 80-86; Lu et al., Tox Sci 2019. 170 (2): 345-356).
(§11) Fluorescent signals (Ca^2+ transient morphology) were measured using the Functional Drug Screen System (FDSS/μCell; Hamamatsu, Japan) and the recordings were subsequently analyzed off-line, using appropriate software e.g. Notocord.
(§12) The cell plate was loaded into the FDSS/μCell for a test run: Ca^2+ transients were measured for 4 minutes to check for synchronous beating of the cardiomyocytes in each well. All 96 wells were measured simultaneously (sampling interval: 0.06 s, short exposure time: 10 ms; excitation wavelength 480 nm; emission wavelength 540 nm; FDSS/μCell warmed to 37° C.).
(§13) During the compound addition step, 100 μl of the respective double-concentrated test solutions was pipetted into each well simultaneously.
(§14) Data were analyzed off-line using appropriate software e.g. Notocord-Hem (version 4.3).
The following parameters of the Ca^2′ transient morphology were measured: • beat rate (BR) • amplitude of the Ca^2+ transient (Amp), • CTD90: Ca^2+ transient duration at 90% (time to 90% of the initial base value). […]

In data set [2] the target is hERG potassium channel (IKr) (Homo sapiens (Human), UniProt Q12809). Briefly: Effect on membrane potassium current IKr in hERG transfected CHO cells, Protocol 1 (QPatch). Type of data set: cell-based. To be noted: human, CHO cells stably expressing the hERG potassium channel, pH 7.4. The method, boiled down: (§15)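 Whole-cell automated patch clamp on CHO cells stably expressing hERG, held at −80 mV; the value is the tail current at −40 mV after a 2 s step to +60 mV, at pH 7.4 bath and pH 7.2 pipette. After 0.3% DMSO control, compound was applied at 3×10^−7 M, 3×10^−6 M, 10^−5 M and 3×10^−5 M, 5 min each. IC50 comes from a non-linear least-squares fit of block versus vehicle.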
Chain of hERG potassium channel (IKr) (Q12809 whole entry): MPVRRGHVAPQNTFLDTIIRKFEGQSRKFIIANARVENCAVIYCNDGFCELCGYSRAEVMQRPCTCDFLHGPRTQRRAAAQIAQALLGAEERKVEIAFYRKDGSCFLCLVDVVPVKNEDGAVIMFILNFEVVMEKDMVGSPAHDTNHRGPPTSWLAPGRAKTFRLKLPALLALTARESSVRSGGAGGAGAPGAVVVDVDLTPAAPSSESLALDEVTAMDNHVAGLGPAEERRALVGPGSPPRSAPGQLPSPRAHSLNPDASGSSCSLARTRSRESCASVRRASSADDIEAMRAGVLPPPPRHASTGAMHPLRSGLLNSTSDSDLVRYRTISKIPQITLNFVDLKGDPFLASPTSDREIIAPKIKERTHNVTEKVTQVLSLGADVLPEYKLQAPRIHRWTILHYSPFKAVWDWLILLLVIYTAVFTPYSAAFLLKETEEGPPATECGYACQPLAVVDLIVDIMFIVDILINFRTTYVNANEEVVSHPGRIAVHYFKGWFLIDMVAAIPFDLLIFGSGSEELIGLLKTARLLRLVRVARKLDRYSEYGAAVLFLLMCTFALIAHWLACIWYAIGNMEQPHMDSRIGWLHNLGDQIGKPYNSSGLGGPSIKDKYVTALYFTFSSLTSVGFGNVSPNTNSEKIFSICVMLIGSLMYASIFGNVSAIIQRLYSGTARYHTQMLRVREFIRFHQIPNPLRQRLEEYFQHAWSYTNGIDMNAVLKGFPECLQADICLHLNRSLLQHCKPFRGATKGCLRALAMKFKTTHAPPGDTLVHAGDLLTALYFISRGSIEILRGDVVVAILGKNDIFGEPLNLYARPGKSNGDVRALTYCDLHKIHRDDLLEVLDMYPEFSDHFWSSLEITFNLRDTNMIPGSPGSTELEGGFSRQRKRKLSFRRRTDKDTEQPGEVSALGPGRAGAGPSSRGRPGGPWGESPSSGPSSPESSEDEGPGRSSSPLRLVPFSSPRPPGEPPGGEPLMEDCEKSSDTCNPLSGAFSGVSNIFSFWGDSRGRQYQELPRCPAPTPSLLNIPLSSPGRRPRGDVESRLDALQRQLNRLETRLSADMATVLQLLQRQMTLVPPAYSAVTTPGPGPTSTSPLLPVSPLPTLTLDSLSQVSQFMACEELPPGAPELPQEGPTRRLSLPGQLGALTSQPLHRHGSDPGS
Background: hERG is a cardiac potassium channel; its block is linked to QT prolongation.

Data set [3] relates to MOLM14 cells. Briefly: Proliferation assay (spheroid growth, 8 days), MOLM14.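 Further: spheroid size read as confluence by live-cell imaging, compounds added at a range of concentrations with 0.3% DMSO, DMSO-treated wells = 0%, highest reference dose = low control.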 It is filed as cell-based, human. To be noted: MOLM14, 8 days; hydrochloride; read-out: spheroid assay_OneTime MOLM14 IC50.
In data set [4] the test system is OCI-AML3 cells. Briefly: Proliferation assay (spheroid growth, 8 days), OCI-AML3. To be noted: OCI-AML3, 8 days, hydrochloride. Type of data set: cell-based, human. The method, boiled down:
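Spheroid size on day 8, taken as live-cell imaging confluence, served as readout after 8-day compound exposure (0.3% DMSO, 37 °C, 5% CO2) in round-bottom low-attachment wells. Seeding was 200 cells for MOLM14 and OCI-AML3, 300 for KO-52. IC50 came from % effect versus DMSO and reference baseline, fitted with variable slope.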

The subject of data set [5] is Cor.4U Cardiomyocytes. Briefly: Ca2+-fluorescence assay in human pluripotent stem cell-derived cardiomyocytes (CTCM human), Cor.4U Cardiomyocytes. It is filed as cell-based. Set-up: key: Green: No concern; Yellow: Low concern; Red: High concern; Black: Very high concern due to arrhythmic events. To be noted: 30 min. The protocol:
as §1, §2
Compounds were tested at 0.1 μM, 0.2 μM, 0.5 μM, 1 μM, 2.5 μM and 5 μM (n=4 per dose) on Cor.4U 9-Cardiomyocytes or on iCell® Cardiomyocytes2 […]
as §3, §4, §5
hSC-CMs (Cor.4U® Cardiomyocytes) were obtained from CDI (Ncardia, Germany). Cells are pre-plated and seeded in fibronectin-coated 96-well plates at a density suited to form a monolayer and maintained in culture in a stage incubator (37° C., 5% CO2), according to the instructions of the cell provider.
as §6, §7, §8, §9, §10, §11, §12, §13, §14
The following parameters of the Ca^2′ transient morphology were measured: • beat rate (BR) • amplitude of the Ca^2+ transient (Amp), • CTD90: Ca^2+ transient duration at 90% (time to 90% of the initial base value).
The presence of various ‘arrhythmia-like’ activities were also noted during the experimental periods. […]

Data set [6] addresses hERG potassium channel (Homo sapiens (Human), UniProt Q12809). Briefly: Effect on membrane potassium current IKr in hERG transfected CHO cells, Protocol 1 (QPatch). Type of data set: cell-based. Put shortly: as §15
In data set [7] the test system is OCI-AML3 tumors. Briefly: Efficacy study in disseminated OCI-AML3 model (survival). Type of data set: in vivo, mouse. To be noted: disseminated OCI-AML3, SCID beige mice, vehicle 38.5 days.

Chain of hERG potassium channel (Q12809 whole entry): as above

With `CCN(C(=O)c1cc(F)ccc1Oc1nncnc1N1CCC2(C1)CN([C@H](CCCNCCOC)C(C)C)C2)C(C)C` [Compound 11, (R)-N-ethyl-5-fluoro-N-isopropyl-2-((5-(2-(6-((2-methoxyethyl)amino)-2-methylhexan-3-yl)-2,6-diazaspiro[3.4]octan-6-yl)-1,2,4-triazin-6-yl)oxy)benzamide], in data set [1] (range 0.1-30 μM), the “Color @ 0.1 μM (hazard score)” value was “Green” and the “Color @ 1 μM (hazard score)” value is reported as “Green”. The “Color @ 0.3 μM (hazard score)” value in data set [1] (iCell Cardiomyocytes2, 0.3 μM) is reported as “Green”. For the same compound, in data set [1] (iCell Cardiomyocytes2, 3 μM), the “Color @ 3 μM (hazard score)” value is “Green”. In addition, in data set [1] (iCell Cardiomyocytes2, 10 μM), the “Color @ 10 μM (hazard score)” value was “Green”. For the same compound, the “Color @ 30 μM (hazard score)” value in data set [1] (iCell Cardiomyocytes2, 30 μM) is “Green”. Also, the IC50 (usually the midpoint of a concentration-inhibition curve) at 5 min in data set [2] was above 30200 nM.

For `CCN(C(=O)c1cc(F)ccc1Oc1nncnc1N1CCC2(C1)CN([C@H](CCCNC)C(C)C)C2)C(C)C` [Compound 19, (R)-N-ethyl-5-fluoro-N-isopropyl-2-((5-(2-(2-methyl-6-(methylamino)hexan-3-yl)-2,6-diazaspiro[3.4]octan-6-yl)-1,2,4-triazin-6-yl)oxy)benzamide hydrochloride], the figures for the negative logarithm of the IC50 (pIC50) in data set [3], in data set [4] and in data set [6] were 7.24, 6.80 and below 4.52, respectively. The “Color @ 0.1 μM (hazard score)” value in data set [5] (0.1 μM) was “Green”. Moreover, in data set [5] (0.2 μM), the “Color @ 0.2 μM (hazard score)” value was “Green”. In addition, in data set [5] (0.5 μM), the “Color @ 0.5 μM (hazard score)” value is on record as “Green”. Besides, the “Color @ 1 μM (hazard score)” value in data set [5] (1 μM) was “Green”. The “Color @ 2.5 μM (hazard score)” value in data set [5] (2.5 μM) was “Green”. In addition, in data set [5] (5 μM), the “Color @ 5 μM (hazard score)” value was “Green”.

`CCN(C(=O)c1cc(F)ccc1Oc1nncnc1N1CCC2(C1)CN([C@H](CCCN(C)CCOC)C(C)C)C2)C(C)C` [Compound 70, (R)-N-ethyl-5-fluoro-N-isopropyl-2-((5-(2-(6-((2-methoxyethyl)(methyl)amino)-2-methylhexan-3-yl)-2,6-diazaspiro[3.4]octan-6-yl)-1,2,4-triazin-6-yl)oxy)benzamide oxalate]: in data set [1], the “Color @ 0.1 μM (hazard score)” value is on record as “Green” and the “Color @ 1 μM (hazard score)” value is “Green”. Also, the “Color @ 0.2 μM (hazard score)” value in data set [1] (iCell Cardiomyocytes2, 0.2 μM) is “Green”. For the same compound, the “Color @ 0.5 μM (hazard score)” value in data set [1] (iCell Cardiomyocytes2, 0.5 μM) is recorded as “Green”. In addition, the “Color @ 2.5 μM (hazard score)” value in data set [1] (iCell Cardiomyocytes2, 2.5 μM) was “Green”. Moreover, the “Color @ 5 μM (hazard score)” value in data set [1] (iCell Cardiomyocytes2, 5 μM) is recorded as “Green”. For the same compound, in data set [7] (30 mg/kg PO daily for 28 days), the “median days of survival” value turned out to be 75.5 days. In data set [7] (50 mg/kg PO daily for 28 days), the “median days of survival” value came out at 58.5 days.
